{"source": "patent US12023311B2", "about": "“Delayed release pharmaceutical formulations comprising valproic acid, and uses thereof” (Cereno Scientific AB, priority 2016, dated 2024)", "key": {"[1]": {"assay": "Intermediate endpoint study in patients with TIA/minor stroke: plasma concentration of valproic acid", "assay_type": "in vivo, human", "settings": "400 mg enteric-coated tablet with delayed absorption, oral, once daily at 11 pm, clock time", "procedure": "(§1) An intermediate endpoint proof-of-concept study is performed in patients with TIA/minor stroke investigated before and after treatment with Valproic acid. Valproic acid is administrated as an enteric-coated tablet with delayed absorption.\n(§2) The study comprises 20 patients with TIA/minor stroke. Patients are investigated before and after oral treatment with 400 mg valproic acid once time daily at 11 pm for 2 weeks. Plasma PAI-1 levels and plasma concentrations of valproic acid is followed daily during the study period at the following time-points: 3 am, 6 am, 10 am, 16 pm, 22 pm PAI-1 levels are measured by commercially available ELISA-kits (Coaliza PA-1, Chromogenix AB) and the plasma concentration of valproic acid an metabolites thereof is analyzed according to clinical routine at the Sahlgrenska University laboratory, Gothenburg, Sweden."}, "PAI-1 [2]": {"system": "PAI-1", "assay": "Proof-of-concept study in healthy subjects: plasma PAI-1 before and after valproic acid", "assay_type": "in vivo, human", "settings": "p<0.05", "procedure": "(§3) The effects of VPA on PAI-1 were analysed in two different proof-of-concept studies in healthy subjects as well as in patients with manifest atherosclerotic disease. […] PAI-1 plasma levels were measured in the morning at the first day of the study as well as at the end of the treatment period with VPA (see example 2 for details on the PAI-1 analysis).\nIn the first study, 10 healthy non-smoking white male subjects (with mean BMI of approximately 26), aged 50-70 years were included and treated with valproic acid 500 mg (Ergenyl Retard. Sanofi) twice daily during 14 days."}, "PAI-1 [3]": {"system": "PAI-1", "settings": "cultured endothelial cells; no decrease of PAI-1 mRNA levels after VPA treatment; slight but significant; cited from earlier work"}, "PAI-1 [4]": {"system": "PAI-1", "assay": "Intermediate endpoint study in patients with TIA/minor stroke: plasma PAI-1 levels", "assay_type": "in vivo, human", "settings": "20 patients with TIA/minor stroke; 400 mg valproic acid enteric-coated tablet with delayed absorption, once daily at 11 pm for 2 weeks", "procedure": "as §1, §2"}, "PAI-1 [5]": {"system": "PAI-1", "settings": "in vivo model in pig (Svennerholm et al. 2014); cited from earlier work"}, "PAI-1 [6]": {"system": "PAI-1", "settings": "in vivo model in mouse (Larsson, Alwis et al. 2016); cited from earlier work"}, "PAI-1 [7]": {"system": "PAI-1", "assay": "Proof-of-concept study in patients with a history of myocardial infarction: plasma PAI-1 before and after valproic acid", "assay_type": "in vivo, human", "settings": "midmorning, p=0.01; for reduction in circulating plasma PAI-1 levels: 16 male patients aged 50-80 with history of myocardial infarction, valproic acid 500 mg (Ergenyl Retard, Sanofi) twice daily 28 days on top of ordinary prescription", "procedure": "as §3\nIn the second study, 16 non-smoking white male patients, aged 50-80 years with a history of a myocardial infarction were included. On top of their ordinary prescription (beta-blocker, ACE-inhibitor, statin, aspirin) they were treated with valproic acid 500 mg (Ergenyl Retard, Sanofi), twice daily during 28 days."}}, "note": "Like-named read-outs stand apart in the source and are kept apart here."}
{"molecule": "CCCC(CCC)C(=O)O", "note": "[valproic acid, 2-propylpentanoic acid]", "values": [{"measurement": "time of peak plasma concentration of valproic acid", "setting": "[1]", "result": "peak between 3 am and 6 am"}, {"measurement": "reduction in circulating plasma PAI-1 levels", "setting": "PAI-1 [2]; 10 healthy non-smoking male subjects aged 50-70, valproic acid 500 mg (Ergenyl Retard, Sanofi) twice daily 14 days, mid-morning vs before treatment", "result": "more than 50%"}, {"measurement": "circulating plasma PAI-1 level after treatment", "setting": "PAI-1 [2]; healthy male subjects, 500 mg (Ergenyl Retard) twice daily 14 days, mid-morning, from 22.2 ng/ml before treatment", "result": 10.8, "unit": "ng/mL"}, {"measurement": "increase in PAI-1 production", "setting": "PAI-1 [3]", "result": 30, "unit": "%"}, {"measurement": "plasma PAI-1 levels lowered after the treatment", "setting": "PAI-1 [4]", "result": "approximately 30%"}, {"measurement": "effects on plasma PAI-1", "setting": "PAI-1 [5]", "result": "did not detect any effects"}, {"measurement": "effects on plasma PAI-1", "setting": "PAI-1 [6]", "result": "did not detect any effects"}, {"measurement": "reduction in circulating plasma PAI-1 levels", "setting": "PAI-1 [7]", "result": 45, "unit": "%"}, {"measurement": "reduction in circulating plasma PAI-1 levels", "setting": "PAI-1 [7]; listed as VPA", "result": "about 45%"}, {"measurement": "circulating plasma PAI-1 level after treatment", "setting": "PAI-1 [7]; patients with history of myocardial infarction, 500 mg (Ergenyl Retard) twice daily 28 days, from 19.6 ng/ml before treatment", "result": 11, "unit": "ng/mL"}]}
